# Reference: paper PMC9150102 (Journal of Medicinal Chemistry, 2022)
# Assays:
# [1] = tested on: Na^+/K^+ ATPase current (INaK); assay: Na+/K+ ATPase current (INaK) in isolated rat LV myocytes; assay type: cell-based; conditions: isolated rat cardiomyocytes
# [2] = tested on: SR Ca^2+ uptake in STZ cardiomyocytes; assay: SR loading protocol (SR Ca2+ uptake under NCX inhibition) in patch-clamped STZ myocytes; assay type: cell-based, rat; conditions: 1 μM
# STZ diabetic rats = assay: Echocardiography (hemodynamics) in STZ diabetic rats during i.v. infusion; assay type: in vivo, rat
# Procedure: Drug effects reached a plateau at 15 min of infusion; 10 min after discontinuation of the infusion, most echo indexes affected by the compound returned to the basal level.
# Echocardiographic parameters were measured before (basal) and at 15 and 30 min during drug infusion and 10 min after drug interruption under urethane anesthesia. Data are the mean ± SEM; all the results of echocardiographic indexes are summarized in Table S2; N = 13; *p < 0.05 (one-way RM ANOVA).
# Diabetes was induced in Sprague Dawley male rats (150–175 g) by a single i.v. STZ group (50 mg/kg in citrate buffer) injection in the tail vein. Control (healthy group) rats received vehicle (citrate buffer).
# Rats were studied by transthoracic echocardiographic under anesthesia (1.25 g/kg urethane, i.p). Left-ventricular end-diastolic (LVEDD) and end-systolic (LVESD) diameter, posterior wall (PWT), and interventricular septal thickness (IVST) were measured according to the American Society of Echocardiography guidelines.[16] FS was calculated as FS = (LVEDD – LVESD)/LVEDD. Trans-mitral flow velocity was measured (pulsed Doppler) to obtain early and late filling velocities (E and A waves) and E wave deceleration time (DT). […]
# Hemodynamic studies in rats with diabetic cardiomyopathy
# Control (healthy group) rats received STZ vehicle (citrate buffer). […]
# were considered diabetic9.
# Two-dimensionally guided M-mode recordings were […]
# the American Society of Echocardiography guidelines13. Fractional shortening was calculated as FS = […]
# E wave deceleration time (DT). […]
# jugular vein for drug infusion in rats. Rats were randomly submitted to an echocardiographic study […]
# intravenous infusion at the dose of 0.2 mg/kg/min. Echo parameters were measured at 15 and 30 min after infusion start and 10 min after drug interruption under urethane anesthesia. Data are mean ± SEM. *p<0.05 vs basal (one-way ANOVA for repeated measurements). […]
# basal after 15 min after 30 min after 10 min
# [3] = Acute toxicity (LD50) in mice; conditions: male, Albino Swiss CD-1, mouse, in vivo
# Procedure: Acute toxicity (LD50) was preliminarily evaluated in mice following i.v. and oral drug administration.
# Control animals received the vehicle only.
# Drug toxicity studies in mice
# Acute toxicity was determined in CD1 mice. Separate mice groups were either orally treated, or
# intravenously injected, with increasing doses of the tested substance to identify the dose causing 50%
# mortality (LD50). Acute mortality was assessed at 30 min after compound administration; survival was
# [4] = i.v. infusion 0.2 mg/kg/min, after 15 min
# [5] = i.v. infusion 0.2 mg/kg/min, after 30 min
structure (smiles),measurement,setting,value
C[C@]12CC[C@H](CCCC(=O)O)C[C@@H]1[C@@H](O)C[C@@H]1[C@@H]2CC[C@]2(C)C(=O)CC[C@@H]12 [Compound 5],concentration above which INaK inhibition is detectable,[1],higher than 20 μM
same,Ca2+ transient (CaT) decay time constant,[2],sharply accelerated Ca^2+ transient (CaT) decay
same,CaT amplitude,[2],not significantly affected
same,excitation release (ER) gain,[2],increased excitation release (ER) gain
same,CO,STZ diabetic rats; 10 min after drug interruption,"153,2±10,67 ml/min"
same,DT,STZ diabetic rats; 10 min after drug interruption,"52,4±4,36 ms"
same,DT/E,STZ diabetic rats; 10 min after drug interruption,"68,2±6,13 s2/mm"
same,E/A,STZ diabetic rats; 10 min after drug interruption,"1,37±0,06"
same,E/DT,STZ diabetic rats; 10 min after drug interruption,"16,5±1,78 m/s2"
same,E/e',STZ diabetic rats; 10 min after drug interruption,"40,22±0,82"
same,EF,STZ diabetic rats; 10 min after drug interruption,"92,66±1,05%"
same,FS,STZ diabetic rats; 10 min after drug interruption,"61,3±2,05%"
same,HR,STZ diabetic rats; 10 min after drug interruption,228±10 bpm
same,IVSTd,STZ diabetic rats; 10 min after drug interruption,"1,68 ± 0,07 mm"
same,IVSTs,STZ diabetic rats; 10 min after drug interruption,"2,55 ± 0,10 mm"
same,LVEDD,STZ diabetic rats; 10 min after drug interruption,"6,84 ± 0,17 mm"
same,LVESD,STZ diabetic rats; 10 min after drug interruption,"2,64 ± 0,17 mm"
same,PWTd,STZ diabetic rats; 10 min after drug interruption,"1,17 ± 0,07 mm"
same,PWTs,STZ diabetic rats; 10 min after drug interruption,"2,42 ± 0,10 mm"
same,SV,STZ diabetic rats; 10 min after drug interruption,"0,68±0,05 ml"
same,a',STZ diabetic rats; 10 min after drug interruption,"26,22±1,31 mm/s"
same,e',STZ diabetic rats; 10 min after drug interruption,"19,4±0,60 mm/s"
same,e'/a',STZ diabetic rats; 10 min after drug interruption,"0,76±0,047"
same,s',STZ diabetic rats; 10 min after drug interruption,"20,6±0,53 mm/s"
same,CO,STZ diabetic rats; [4],"177,2±11,27 ml/min"
same,DT,STZ diabetic rats; [4],"42,46±2,83 ms"
same,DT/E,STZ diabetic rats; [4],"49,52±3,44 s2/mm"
same,E/A,STZ diabetic rats; [4],"1,36±0,05"
same,E/DT,STZ diabetic rats; [4],"21,49±1,61 m/s2"
same,E/e',STZ diabetic rats; [4],"37,49±1,2"
same,EF,STZ diabetic rats; [4],"90,68±1,4%"
same,FS,STZ diabetic rats; [4],"58,1±2,38%"
same,HR,STZ diabetic rats; [4],268±15 bpm
same,IVSTd,STZ diabetic rats; [4],"1,81±0,08 mm"
same,IVSTs,STZ diabetic rats; [4],"2,34±0,10 mm"
same,LVEDD,STZ diabetic rats; [4],"6,86±0,17 mm"
same,LVESD,STZ diabetic rats; [4],"2,87±0,18 mm"
same,PWTd,STZ diabetic rats; [4],"1,16±0,07 mm"
same,PWTs,STZ diabetic rats; [4],"2,59±0,09 mm"
same,SV,STZ diabetic rats; [4],"0,68±0,05 ml"
same,a',STZ diabetic rats; [4],"29,13±1,82 mm/s"
same,e',STZ diabetic rats; [4],"23,33±0,73 mm/s"
same,e'/a',STZ diabetic rats; [4],"0,84±0,07"
same,s',STZ diabetic rats; [4],"22,4±0,86 mm/s"
same,CO,STZ diabetic rats; [5],"175,15±9,4 ml/min"
same,DT,STZ diabetic rats; [5],"42,15±2,74 ms"
same,DT/E,STZ diabetic rats; [5],"48,51±4,56 s2/mm"
same,E/A,STZ diabetic rats; [5],"1,34±0,06"
same,E/DT,STZ diabetic rats; [5],"23,18±2,32 m/s2"
same,E/e',STZ diabetic rats; [5],"37,45±1,24"
same,EF,STZ diabetic rats; [5],"92,19±1,18%"
same,FS,STZ diabetic rats; [5],"60,7±2,31%"
same,HR,STZ diabetic rats; [5],252±14 bpm
same,IVSTd,STZ diabetic rats; [5],"1,71±0,1 mm"
same,IVSTs,STZ diabetic rats; [5],"2,55±0,13 mm"
same,LVEDD,STZ diabetic rats; [5],"6,94±0,15 mm"
same,LVESD,STZ diabetic rats; [5],"2,73±0,18 mm"
same,PWTd,STZ diabetic rats; [5],"1,22±0,07 mm"
same,PWTs,STZ diabetic rats; [5],"2,53±0,10 mm"
same,SV,STZ diabetic rats; [5],"0,71±0,04 ml"
same,a',STZ diabetic rats; [5],"28,94±1,47 mm/s"
same,e',STZ diabetic rats; [5],"24,24±0,65 mm/s"
same,e'/a',STZ diabetic rats; [5],"0,86±0,05"
same,s',STZ diabetic rats; [5],"21,8±0,78 mm/s"
same,systolic function,STZ diabetic rats; i.v. infusion at a single dose,did not affect systolic function significantly
same,LD50 at 24 h,[3]; iv,300 mg/kg
same,LD50 at 24 h,[3]; po,> 800 mg/kg
